According to patent US20090069301A1, “Acridine and Quinoline Derivatives as Sirtuin Modulators” (Sirtris Pharmaceuticals, Inc., priority 2005, published 2009):

Target: T1, SIRT1 (Homo sapiens, UniProt Q96EB6)
T1 sequence (Q96EB6 1-747): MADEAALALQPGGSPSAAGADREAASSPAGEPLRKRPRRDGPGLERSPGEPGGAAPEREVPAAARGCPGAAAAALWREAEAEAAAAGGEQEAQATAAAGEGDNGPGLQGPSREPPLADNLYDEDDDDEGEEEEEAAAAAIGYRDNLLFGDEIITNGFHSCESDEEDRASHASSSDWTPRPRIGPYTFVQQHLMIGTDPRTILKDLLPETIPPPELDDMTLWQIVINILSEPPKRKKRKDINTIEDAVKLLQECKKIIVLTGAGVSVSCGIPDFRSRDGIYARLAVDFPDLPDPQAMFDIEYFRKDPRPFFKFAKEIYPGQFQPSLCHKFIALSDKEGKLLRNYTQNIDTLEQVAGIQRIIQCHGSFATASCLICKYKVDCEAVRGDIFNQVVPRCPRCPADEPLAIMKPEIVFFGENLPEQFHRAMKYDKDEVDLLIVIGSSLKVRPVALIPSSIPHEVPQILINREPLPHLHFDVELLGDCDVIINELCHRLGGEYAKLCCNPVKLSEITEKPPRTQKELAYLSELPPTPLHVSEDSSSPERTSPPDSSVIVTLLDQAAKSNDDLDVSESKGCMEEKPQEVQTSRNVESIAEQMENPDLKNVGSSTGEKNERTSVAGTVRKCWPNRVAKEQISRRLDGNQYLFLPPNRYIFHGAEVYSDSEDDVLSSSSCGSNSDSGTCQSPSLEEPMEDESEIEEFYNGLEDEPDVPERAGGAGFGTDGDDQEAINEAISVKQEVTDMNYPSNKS
Assay: Fluorescence polarization or mass spectrometry based assay to identify modulators of SIRT1 activity (p53-based peptide deacetylation);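 further: recombinant His-tagged human SIRT1 deacetylating p53-derived acetylated peptide, detected by fluorescence polarization after trypsin cleavage, signal inversely tracking deacetylase activity, compared against activity without test compound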
Format: biochemical
Details: activation of SIRT1, Table 4; read-out: ED50 (the source's name)

Question: O=C(NCc1ccncc1)c1cc(-c2ccsc2)nc2ccccc12 [Compound 1] was tested. Which EC50 did it give?
Answer: Its EC50 is under 50 µM.

Question: Which EC50 does the source give for COc1cc(C(=O)NNc2c3ccccc3nc3ccccc23)cc(OC)c1OC [Compound 3] here?
Answer: Its EC50 is under 50 µM.

Question: With CCCOc1cccc(-c2cc(C(=O)NCCN3CCOCC3)c3ccccc3n2)c1 [Compound 4] as the molecule, how does the EC50 read?
Answer: Its EC50 is over 150 µM.

Question: With Cc1ccc2nc(-c3cccs3)cc(C(=O)NCCN3CCOCC3)c2c1 [Compound 6] as the molecule, how does the EC50 read?
Answer: The EC50 was under 50 µM.

Question: For CCN(CC)S(=O)(=O)c1ccc(N2CCOCC2)c(NC(=O)c2cc(-c3ccccn3)nc3ccccc23)c1 [Compound 9], which EC50 is on record?
Answer: Its EC50 is over 150 µM.

Question: For O=C(NNc1c2ccccc2nc2ccccc12)c1ccncc1 [Compound 10], which EC50 is on record?
Answer: The EC50 was under 50 µM.

Question: O=C(NNc1c2ccccc2nc2ccccc12)c1cccnc1 [Compound 11] was tested. Which EC50 did it give?
Answer: Its EC50 is under 50 µM.

Question: For Cc1ccc2nc(-c3ccco3)cc(C(=O)NCCCCN3CCN(C)CC3)c2c1 [Compound 17], which EC50 is on record?
Answer: Its EC50 is over 150 µM.

Question: How did the EC50 turn out when Cc1ccc2nc(-c3cccs3)cc(C(=O)NCCCN3CCN(C)CC3)c2c1 [Compound 18] was run?
Answer: Its EC50 is over 150 µM.

Question: With Cc1ccc2nc(-c3ccco3)ccc2c1C(=O)NCCCN1CCCCC1 [Compound 20] as the molecule, how does the EC50 read?
Answer: The EC50 was over 150 µM.

Question: Cc1ccc2nc(-c3cccs3)ccc2c1C(=O)NCCCN1CCCCC1 [Compound 21] was tested. Which EC50 did it give?
Answer: The EC50 was over 150 µM.

Question: How did the EC50 turn out when O=C(NNc1cc(-c2ccccc2)nc2ccccc12)c1ccccn1 [Compound 22] was run?
Answer: Its EC50 is under 50 µM.

Question: How did the EC50 turn out when O=C(NNc1cc(-c2ccccc2)nc2ccccc12)c1ccc(Cl)cc1 [Compound 23] was run?
Answer: Its EC50 is under 50 µM.

Question: With COc1cc(C(=O)NNc2cc(-c3ccccc3)nc3ccccc23)cc(OC)c1OC [Compound 24] as the molecule, how does the EC50 read?
Answer: Its EC50 is over 150 µM.

Question: With CN(C)c1ccc(C(=O)NNc2cc(-c3ccccc3)nc3ccccc23)cc1 [Compound 25] as the molecule, how does the EC50 read?
Answer: Its EC50 is over 150 µM.

Question: For COc1ccc(C(=O)NNc2cc(-c3ccccc3)nc3ccccc23)cc1OC [Compound 26], which EC50 is on record?
Answer: Its EC50 is under 50 µM.

Question: Which EC50 does the source give for COc1cc(NC(=O)c2cc(-c3ccccc3)nc3ccccc23)cc(OC)c1OC [Compound 27] here?
Answer: Its EC50 is over 150 µM.

Question: With Cc1ccc2nc(-c3ccco3)cc(C(=O)N3CCCCC3)c2c1 [Compound 30] as the molecule, how does the EC50 read?
Answer: Its EC50 is over 150 µM.

Question: Which EC50 does the source give for Cc1ccc2nc(-c3ccco3)cc(C(=O)NCCCN3CCOCC3)c2c1 [Compound 31] here?
Answer: The EC50 was over 150 µM.

Question: With Cc1ccc2nc(-c3ccco3)cc(C(=O)N(C)CCN(C)C)c2c1 [Compound 32] as the molecule, how does the EC50 read?
Answer: The EC50 was over 150 µM.

Question: Which EC50 does the source give for Cc1ccc2nc(-c3ccco3)cc(C(=O)N3CCN(C)CC3)c2c1 [Compound 33] here?
Answer: The EC50 was over 150 µM.

Question: For Cc1ccc2nc(-c3ccco3)cc(C(=O)NCCN3CCCCC3)c2c1 [Compound 34], which EC50 is on record?
Answer: The EC50 was over 150 µM.

Question: How did the EC50 turn out when Cc1ccc2nc(-c3ccco3)cc(C(=O)N3CCOCC3)c2c1 [Compound 35] was run?
Answer: Its EC50 is over 150 µM.

Question: How did the EC50 turn out when Cc1ccc2nc(-c3ccccc3)cc(C(=O)NCCCN3CCCCC3)c2c1 [Compound 44] was run?
Answer: The EC50 was over 150 µM.

Question: For Cc1ccc2nc(-c3ccccc3)cc(C(=O)NCCCN3CCN(C)CC3)c2c1 [Compound 45], which EC50 is on record?
Answer: The EC50 was over 150 µM.

Question: How did the EC50 turn out when Cc1ccc2nc(-c3ccco3)cc(C(=O)NCCN(C)CCN(C)C)c2c1 [Compound 46] was run?
Answer: The EC50 was over 150 µM.

Question: For Cc1ccc2nc(-c3ccco3)cc(C(=O)NCCCN3CCN(C)CC3)c2c1 [Compound 47], which EC50 is on record?
Answer: Its EC50 is over 150 µM.

Question: Cc1ccc2nc(-c3cccs3)cc(C(=O)N3CCCCC3)c2c1 [Compound 48] was tested. Which EC50 did it give?
Answer: The EC50 was over 150 µM.

Question: Cc1ccc2nc(-c3cccs3)cc(C(=O)N3CCN(C)CC3)c2c1 [Compound 49] was tested. Which EC50 did it give?
Answer: Its EC50 is over 150 µM.

Question: For Cc1ccc2nc(-c3cccs3)cc(C(=O)N3CCCN(C)CC3)c2c1 [Compound 50], which EC50 is on record?
Answer: The EC50 was over 150 µM.

Question: Which EC50 does the source give for Cc1ccc2nc(-c3cccs3)cc(C(=O)N(C)CCN(C)C)c2c1 [Compound 51] here?
Answer: Its EC50 is over 150 µM.

Question: For Cc1ccc2nc(-c3cccs3)cc(C(=O)NCCN3CCCCC3)c2c1 [Compound 52], which EC50 is on record?
Answer: Its EC50 is over 150 µM.

Question: With Cc1ccc2nc(-c3cccs3)cc(C(=O)NCCCN3CCOCC3)c2c1 [Compound 53] as the molecule, how does the EC50 read?
Answer: The EC50 was over 150 µM.

Question: Which EC50 does the source give for CC(C)c1cc(NC(=O)c2c3ccccc3nc3ccccc23)n(-c2ccccc2)n1 [Compound 118] here?
Answer: Its EC50 is under 50 µM.

Question: COc1cc(C(=O)NNc2c3c(nc4ccccc24)CCCC3)cc(OC)c1OC [Compound 120] was tested. Which EC50 did it give?
Answer: Its EC50 is under 50 µM.

Question: For c1ccc(NNc2c3ccccc3nc3ccccc23)nc1 [Compound 121], which EC50 is on record?
Answer: The EC50 was under 50 µM.

Question: Which EC50 does the source give for c1ccc2c(c1)Oc1ccccc1C2n1nnc2ccccc21 [Compound 124] here?
Answer: Its EC50 is over 150 µM.

Question: For CC(C)c1cc(NCc2c3ccccc3nc3ccccc23)n(-c2ccccc2)n1 [Compound 125], which EC50 is on record?
Answer: Its EC50 is over 150 µM.

Question: Which EC50 does the source give for COc1cc(NCc2c3ccccc3nc3ccccc23)cc(OC)c1OC [Compound 127] here?
Answer: Its EC50 is over 150 µM.

Question: O=C(Nc1ccc(N2CCCCC2)cc1)c1c2ccccc2nc2ccccc12 [Compound 128] was tested. Which EC50 did it give?
Answer: The EC50 was over 150 µM.

Question: O=C(Nc1ccccc1-n1cccc1)c1c2ccccc2nc2ccccc12 [Compound 129] was tested. Which EC50 did it give?
Answer: Its EC50 is over 150 µM.

Question: How did the EC50 turn out when Cc1ccc(-c2cccc(NC(=O)c3c4ccccc4nc4ccccc34)c2)cc1C [Compound 130] was run?
Answer: Its EC50 is over 150 µM.

Question: CC(C)c1cc(Nc2c3ccccc3nc3ccccc23)n(-c2ccccc2)n1 [Compound 131] was tested. Which EC50 did it give?
Answer: Its EC50 is over 150 µM.

Question: How did the EC50 turn out when O=C(NNC(=O)c1c2ccccc2nc2ccccc12)c1cc(F)cc(F)c1 [Compound 134] was run?
Answer: The EC50 was over 150 µM.

Question: For CS(=O)(=O)c1ccc(F)c(NC(=O)c2c3ccccc3nc3ccccc23)c1 [Compound 135], which EC50 is on record?
Answer: The EC50 was over 150 µM.

Question: For COc1ccccc1N1CCN(C(=O)c2c3ccccc3nc3ccccc23)CC1 [Compound 136], which EC50 is on record?
Answer: Its EC50 is over 150 µM.

Question: How did the EC50 turn out when COc1cc(-c2nnc(-c3c4ccccc4nc4ccccc34)o2)cc(OC)c1OC [Compound 137] was run?
Answer: Its EC50 is under 50 µM.

Question: For O=C(Nc1ccc2c(c1)OCO2)Nc1c2ccccc2nc2ccccc12 [Compound 153], which EC50 is on record?
Answer: Its EC50 is over 150 µM.

Question: Which EC50 does the source give for COc1cc(C(=O)NN(C)c2c3ccccc3nc3ccccc23)cc(OC)c1OC [Compound 154] here?
Answer: Its EC50 is over 150 µM.

Question: For CN(NC(=O)c1ccncc1)c1c2ccccc2nc2ccccc12 [Compound 155], which EC50 is on record?
Answer: The EC50 was under 50 µM.

Question: O=C(Nc1c2c(nc3ccccc13)CCCC2)c1ccncc1 [Compound 157] was tested. Which EC50 did it give?
Answer: The EC50 was over 150 µM.

Question: With CCCCc1ccc(NC(=O)c2c3c(nc4ccccc24)CCCC3)cc1 [Compound 160] as the molecule, how does the EC50 read?
Answer: Its EC50 is over 150 µM.

Same assay, conditions: inhibition of SIRT1, Table 5

Question: How did the IC50 turn out when Cc1ccc2nc(-c3ccccc3)cc(C(=O)NCCCN3CCOCC3)c2c1 [Compound 169] was run?
Answer: The IC50 was over 150 µM.

Question: For Cc1ccc2nc(-c3ccccc3)cc(C(=O)NCCCCCN3CCOCC3)c2c1 [Compound 170], which IC50 is on record?
Answer: The IC50 was over 150 µM.

Question: Cc1ccc2nc(-c3ccccc3)cc(C(=O)NCCCCCN3CCCCC3)c2c1 [Compound 171] was tested. Which IC50 did it give?
Answer: Its IC50 is over 150 µM.

Question: Which IC50 does the source give for Cc1ccc2nc(-c3cccs3)cc(C(=O)N3CCOCC3)c2c1 [Compound 172] here?
Answer: Its IC50 is over 150 µM.
